Reference: US11286228B2, “Stilbene derivative and method for preparing same” (Ozchela Inc., priority 2016, dated 2022)
Read-outs that look alike come from different tables or passages of the source.

Columns and labels:
cyclophilin = test: Cis-trans isomerase inhibitory activity (chymotrypsin-coupled Suc-AAPF-pNA cleavage, absorbance 390 nm); assay type: biochemical
From the text: Chymotrypsin cleaves a trans-type alanine-proline peptide bond. When Suc-AAPF-pNA (a peptide substrate) and chymotrypsin are mixed, the trans-type peptide substrate is cleaved and the cis-type peptide substrate remains. The remaining cis-type peptide substrate is converted into a trans form by a cis-trans isomerase and is then cleaved again by chymotrypsin. When the cis-trans isomerase is present, chymotrypsin is able to cleave a larger amount of trans-type peptide substrate within a predetermined period of time, from which the activity of the cis-trans isomerase may be determined. The amount of the cleaved trans-type peptide substrate is measured using absorbance at 390 nm. Cyclophilin has cis-trans isomerase activity, and accelerates the cleavage of trans-type peptide substrate by chymotrypsin. When the stilbene derivatives of the present invention were treated together with cyclophilin, the cleavage of the peptide substrate by chymotrypsin was not observed to accelerate. Thereby, the stilbene derivatives of the invention can be concluded to inhibit the activity of cyclophilin.

[1] = system: mitochondria obtained from hepatocytes; test: Inhibitory activity on calcium-induced mitochondrial swelling (absorbance 520 nm)
From the text: Cyclophilin is a key protein for forming permeability transition pores (PTP) in mitochondria. When permeability transition pores are formed, mitochondria swell, whereby the outer membrane thereof ruptures and thus cell death progresses. Such mitochondrial dysfunction causes many diseases including neurodegenerative diseases, cancer, and the like. Cyclosporine, a known cyclophilin inhibitor, is capable of preventing the formation of permeability transition pores to thus suppress mitochondrial swelling.
The mitochondrial swelling test was performed as follows. Specifically, the hepatocytes were disrupted using a Dounce tissue grinder. The disrupted cells were centrifuged at 700×g for 10 min and the supernatant was transferred into a new tube. The supernatant was centrifuged at 12,000×g for 15 min, thereby obtaining mitochondria.
When the extracted mitochondria were added with calcium, they swelled, which may be observed by measuring the absorbance at 520 nm. The stilbene derivatives are effective at inhibiting mitochondrial swelling due to calcium.
The activity of Compounds 1 to 155 of Tables 1 to 10 on inhibiting mitochondrial swelling may be determined based on IC50 values, and may be grouped as follows: […]

hepatitis C virus = test: Antiviral activity in HCV replicon cells (Renilla luciferase); assay type: cell-based
Method: The antiviral activity of the stilbene derivatives on hepatitis C virus was measured. The replicon cells that stably replicate the hepatitis C virus genome were attached to a culture plate and cultured in a CO2 incubator at 37° C. for 24 hr. The replicon cells cultured for one day were washed with a PBS solution, treated with the compounds of the present invention, and then cultured for 72 hr. The stilbene derivative-treated replicon cells were washed with a cold PBS solution and added with 20 μL of a cell lysis solution so that the cells were lysed in ice for 20 min. 100 μL of a Renilla luciferase substrate was added thereto, after which the luminescence thereof was measured and thus the amount of the hepatitis C virus genome was estimated. The amount of the hepatitis C virus genome in the stilbene derivative-treated replicon cells according to the present invention relative to the amount of the hepatitis C virus genome in dimethylsulfoxide (DMSO)-treated replicon cells is shown.
Compounds 1 to 155 of Tables 1 to 10 may be grouped as follows based on the antiviral activity (EC50) values: […]

[2] = cyclophilin, chymotrypsin, Suc-AAPF-pNA, read-out: Test Example 1: cis-trans isomerase inhibitory activity (IC50)
[3] = Hepatocyte, calcium-induced swelling of extracted mitochondria, read-out: Test Example 4: inhibiting mitochondrial swelling (IC50)
[4] = Hepatitis C virus, HCV replicon cells, 72 hr, Renilla luciferase, relative to DMSO, read-out: Test Example 3: antiviral activity (EC50)
[5] = Hepatitis C virus, 72 h, read-out: Test Example 3: antiviral activity (EC50)
[6] = calcium-induced swelling of extracted mitochondria, read-out: Test Example 4: inhibiting mitochondrial swelling (IC50)
[7] = HCV replicon cells, 72 hr, Renilla luciferase, relative to DMSO, read-out: Test Example 3: antiviral activity (EC50)
[8] = read-out: Test Example 1: cis-trans isomerase inhibitory activity (IC50) group
[9] = read-out: Test Example 4: activity on inhibiting mitochondrial swelling (IC50) group
[10] = HCV replicon cells, read-out: Test Example 3: antiviral activity (EC50) group

Compound	IC50 (cyclophilin; [2]) [nM]	IC50 [1, 3] [µM]	EC50 (hepatitis C virus; [4]) [nM]	further results
CCCCCc1ccc(C=Cc2ccccc2C(=O)OCCCC)cc1 [Compound 132]	≤ 20	< 5	< 500	–
CCCCCOC(=O)c1ccccc1C=C(Cl)c1ccc(CC(C)(C)C)cc1 [Compound 117]	≤ 20	< 5	< 500	–
CCCOC(=O)c1ccccc1C=Cc1ccc(CC(C)(C)C)cc1 [Compound 71]	≤ 20	< 5	< 500	–
CCCCOC(=O)c1ccccc1C=Cc1ccc(CC(C)(C)C)cn1 [Compound 143]	20 to 200	5 to 50	500 to 5000	–
Cc1ccc(CCc2ccccc2C=C(C#N)c2ccc([N+](=O)[O-])cc2)cc1 [Compound 52]	20 to 200	5 to 50	500 to 5000	–
CCCCOC(=O)c1ccccc1C=Cc1ccc(CC(C)(C)C)cc1CC [Compound 68]	20 to 200	5 to 50	500 to 5000	–
N#CC(=Cc1ccccc1C(=O)O)c1ccc(CC2CC2)cc1 [Compound 61]	≤ 20	< 5	< 500	–
N#CC(=Cc1ccccc1C(=O)O)c1ccc(CCC2CCCCC2)cc1 [Compound 60]	≤ 20	< 5	< 500	–
CC(C)(C)Cc1ccc(C=Cc2ccccc2C(=O)OCc2ccccc2)cc1 [Compound 76]	≤ 20	< 5	< 500	–
N#CC(=Cc1ccccc1C1CCCCC1)c1ccc([N+](=O)[O-])cc1 [Compound 31]	20 to 200	–	–	IC50 ([1]; Hepatocyte, read-out: Test Example 4: inhibiting mitochondrial swelling (IC50)): 5 to 50 µM; EC50 (hepatitis C virus; [5]): 500 to 5000 nM
CC(C)C(C)c1ccc(C(C#N)=Cc2ccccc2C(=O)O)cc1 (stereo not drawn) [Compound 55]	20 to 200	5 to 50	500 to 5000	–
CCCCOc1ccc(C(C#N)=Cc2ccccc2C(=O)O)cc1 [Compound 19]	20 to 200	–	–	IC50 [1, 6]: 5 to 50 µM; EC50 (hepatitis C virus; [7]): 500 to 5000 nM
N#CC(=Cc1ccccc1Cc1c(Cl)cccc1Cl)c1ccc([N+](=O)[O-])cc1 [Compound 37]	20 to 200	5 to 50	500 to 5000	–
N#CC(=Cc1ccccc1CCC1CCCCC1)c1ccc([N+](=O)[O-])cc1 [Compound 39]	≤ 20	< 5	< 500	–
CCCCOC(=O)c1ccccc1C=Cc1ccc(CC(C)(C)C)nc1 [Compound 144]	20 to 200	5 to 50	500 to 5000	–
CCCCOC(=O)c1c(C=Cc2ccc(CC(C)(C)C)cc2)ccc(C)c1C [Compound 70]	20 to 200	5 to 50	500 to 5000	–
CCCCOC(=O)c1ccccc1C=C(C)c1ccc(CC(C)(C)C)cc1C [Compound 84]	20 to 200	5 to 50	500 to 5000	–
CC(C)c1ccc(C(C#N)=Cc2ccccc2Cl)cc1 [Compound 4]	200 to 2000	50 to 500	5000 to 50000	–
N#CC(=Cc1ccccc1N1CCOCC1)c1ccc([N+](=O)[O-])cc1 [Compound 30]	200 to 2000	50 to 500	5000 to 50000	–
CCCCOC(=O)c1ccccc1C=C(N)c1ccc(CC(C)(C)C)cc1C [Compound 100]	20 to 200	5 to 50	500 to 5000	–
CCCCOC(=O)c1ncccc1C=Cc1ccc(CC(C)(C)C)cc1 [Compound 145]	20 to 200	5 to 50	500 to 5000	–
CCCCOC(=O)c1ccccc1C=C(I)c1ccc(Cc2ccccc2)cc1 [Compound 123]	20 to 200	5 to 50	–	EC50 (hepatitis C virus; [5]): 500 to 5000 nM
CN(C)CCCOc1cccc(C=C(C#N)c2ccc([N+](=O)[O-])cc2)c1 [Compound 33]	200 to 2000	50 to 500	5000 to 50000	–
CCCCOC(=O)c1ccccc1C=C(F)c1ccc(CC(C)(C)C)cc1 [Compound 112]	≤ 20	< 5	< 500	–

Compound	IC50 (cyclophilin; [2]) [nM]	IC50 [1, 3] [µM]	EC50 (hepatitis C virus; [4]) [nM]	further results
Cc1cccc(C=Cc2ccc(CC(C)(C)C)cc2)c1C(=O)O [Compound 139]	≤ 20	< 5	< 500	–
CC(C)(C)Cc1ccc(C(N)=Cc2ccccc2C(=O)OCC2CCCCC2)cc1 [Compound 105]	20 to 200	5 to 50	500 to 5000	–
CCc1ccccc1C=C(C#N)c1ccc([N+](=O)[O-])cc1 [Compound 22]	200 to 2000	50 to 500	5000 to 50000	–
CCCCOC(=O)c1cc(C)ccc1C=Cc1ccc(CC(C)(C)C)cc1 [Compound 69]	20 to 200	5 to 50	500 to 5000	–
CC(C)OC(=O)c1ccccc1C=Cc1ccc(CC(C)(C)C)cc1 [Compound 73]	≤ 20	< 5	< 500	–
CCC(C)c1ccc(C(C#N)=Cc2ccccc2C(=O)O)cc1 (stereo not drawn) [Compound 9]	20 to 200	–	–	IC50 [1, 6]: 5 to 50 µM; EC50 (hepatitis C virus; [7]): 500 to 5000 nM
CC(C)(C)CCc1ccc(C(C#N)=Cc2ccccc2C(=O)O)cc1 [Compound 57]	≤ 20	< 5	< 500	–
CCCCOC(=O)c1ccccc1C=C(N)c1ccc(CC(C)CC)cc1 (stereo not drawn) [Compound 108]	20 to 200	5 to 50	500 to 5000	–
CC(C)(C)Cc1ccc(C=Cc2cccc(O)c2C(=O)O)cc1 [Compound 135]	≤ 20	< 5	< 500	–
COc1ccccc1C=C(C#N)c1ccc(C(C)(C)C)cc1 [Compound 11]	200 to 2000	50 to 500	5000 to 50000	–
CC(C)(C)Cc1ccc(C=Cc2cccc(N)c2C(=O)O)cc1 [Compound 137]	≤ 20	< 5	< 500	–
CCCCOC(=O)c1c(C)cccc1C=C(N)c1ccc(CC(C)(C)C)cc1 [Compound 99]	20 to 200	5 to 50	500 to 5000	–
CC(C)(C)Cc1ccc(C=Cc2c(N)cccc2C(=O)O)cc1 [Compound 151]	–	–	–	IC50 (cyclophilin; [8]): ≤ 20 nM; IC50 ([1]; Hepatocyte, read-out: Test Example 4: activity on inhibiting mitochondrial swelling (IC50) group): < 5 µM; EC50 (hepatitis C virus; Hepatitis C virus, HCV replicon cells, read-out: Test Example 3: antiviral activity (EC50) group): < 500 nM
CC(C)(C)Cc1ccc(C=Cc2ccccc2C(=O)O)cc1 [Compound 134]	≤ 20	< 5	< 500	–
CC(C)C(C)Cc1ccc(C(C#N)=Cc2ccccc2C(=O)O)cc1 (stereo not drawn) [Compound 58]	20 to 200	5 to 50	–	EC50 (hepatitis C virus; [5]): 500 to 5000 nM
COc1ccccc1C=C(C#N)c1ccc(C(C)C)cc1 [Compound 6]	200 to 2000	50 to 500	5000 to 50000	–
CCCCCc1ccc(C=Cc2ccccc2C(=O)OC)cc1 [Compound 130]	≤ 20	< 5	< 500	–
CC(=Cc1ccccc1C(=O)OCC1CCCCC1)c1ccc(CC(C)(C)C)cc1 [Compound 90]	20 to 200	5 to 50	500 to 5000	–
CC(C)(C)Cc1ccc(C(I)=Cc2ccccc2C(=O)OCC2CCCCC2)cc1 [Compound 119]	≤ 20	< 5	< 500	–
CC(C)(C)Cc1ccc(C=Cc2cc(O)ccc2C(=O)O)cc1 [Compound 153]	–	–	–	IC50 (cyclophilin; [8]): 20 to 200 nM; IC50 [1, 9]: 5 to 50 µM; EC50 (hepatitis C virus; [10]): 500 to 5000 nM
CC(C)(C)Cc1ccc(C(N)=Cc2ccccc2C(=O)OCc2ccccc2)cc1 [Compound 106]	20 to 200	5 to 50	500 to 5000	–
CC(C)(C)Cc1ccc(C(F)=Cc2ccccc2C(=O)OCc2ccccc2)cc1 [Compound 120]	≤ 20	< 5	< 500	–
CCCCOC(=O)c1cccnc1C=Cc1ccc(CC(C)(C)C)cc1 [Compound 148]	–	–	–	IC50 (cyclophilin; [8]): 20 to 200 nM; IC50 [1, 9]: 5 to 50 µM; EC50 (hepatitis C virus; [10]): 500 to 5000 nM
